Drawing on PubChem BioAssay (NCI), this text covers TGI for seven compounds.

The term TGI denotes the concentration giving total growth inhibition.

Structures are written as SMILES.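 Five concentrations, 48 hours, 96-well plates. The concentration for full growth arrest is given as TGI.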 A value given as a limit tells only on which side of the number the result lay.

Some test systems named below: A498 renal; OVCAR-8 ovarian; HL-60(TB) leukemia; DU-145 prostate; CCRF-CEM leukemia; OVCAR-5 ovarian; 786-0 renal; A549 NSCLC; SK-MEL-28 melanoma; KM12 colon; IGROV1 ovarian; SN12C renal; SF-539 CNS; MALME-3M melanoma; MCF7 breast; BT-549 breast; NCI-H226 lung; MDA-MB-435; MDA-MB-231 breast; NCI-H460 lung.
Holding throughout (experiment): DTP human tumour cell line panel, 48 h

As to `N#CC(c1ccccc1)N(CCc1ccccc1)C(=O)Oc1ccccc1` (stereo unspecified), the TGI in the assay with A498 renal, with OVCAR-8 ovarian, with HL-60(TB) leukemia, with DU-145 prostate, with CCRF-CEM leukemia and with OVCAR-5 ovarian was greater than 100 µM throughout. Also, the TGI in the assay with 786-0 renal, in the assay with A549 NSCLC, with SK-MEL-28 melanoma, with KM12 colon, in the assay with IGROV1 ovarian and in the assay on SN12C renal was greater than 100 µM each time. The TGI with SF-539 CNS, with MALME-3M melanoma, in the assay on MCF7 breast, in the assay on BT-549 breast, in the assay on NCI-H226 lung and in the assay with MDA-MB-435 was greater than 100 µM throughout. Moreover, the TGI in the assay with MDA-MB-231 breast is greater than 100 µM.

For `Cc1onc(-c2c(F)cccc2Cl)c1C(=O)N[C@@H]1C(=O)N2[C@@H]1SC(C)(C)[C@@H]2C(=O)O`, the TGI with NCI-H460 lung, in the assay on A498 renal, in the assay with OVCAR-8 ovarian, in the assay with DU-145 prostate, in the assay with OVCAR-5 ovarian and in the assay with 786-0 renal was greater than 100 µM in each case. Besides, the TGI in the assay on A549 NSCLC, in the assay with SK-MEL-28 melanoma, in the assay with KM12 colon, with IGROV1 ovarian, in the assay on SN12C renal and with SF-539 CNS was greater than 100 µM in each case. Further, the TGI in the assay with MALME-3M melanoma, in the assay with MCF7 breast, in the assay with BT-549 breast, in the assay on NCI-H226 lung, in the assay on MDA-MB-435 and with MDA-MB-231 breast was greater than 100 µM each time.

For the compound `Cc1ccccc1NC(=O)C(=O)Cc1cnc2ccccc2n1`, the TGI in the assay on NCI-H460 lung, in the assay with A498 renal, in the assay on OVCAR-8 ovarian, with HL-60(TB) leukemia, in the assay on DU-145 prostate and in the assay with CCRF-CEM leukemia was greater than 100 µM throughout. In addition, the TGI in the assay on OVCAR-5 ovarian, in the assay with 786-0 renal, with A549 NSCLC, in the assay with SK-MEL-28 melanoma, in the assay with KM12 colon and in the assay on IGROV1 ovarian was greater than 100 µM each time. Moreover, the TGI in the assay on SN12C renal, in the assay with SF-539 CNS, in the assay on MALME-3M melanoma, with MCF7 breast, in the assay on BT-549 breast and in the assay with NCI-H226 lung was greater than 100 µM in each case. Also, the TGI with MDA-MB-435 and in the assay with MDA-MB-231 breast was greater than 100 µM in each case.

On to `Cc1cc(C)c2c(c1)C(=O)C1(C2)Cc2c(ccc(C)c2C)C1=O` (stereo unspecified), for which the TGI in the assay with NCI-H460 lung, in the assay on A498 renal, in the assay on OVCAR-8 ovarian, in the assay on HL-60(TB) leukemia, in the assay on DU-145 prostate and in the assay on CCRF-CEM leukemia was greater than 100 µM throughout. Also, the TGI in the assay with 786-0 renal, in the assay on A549 NSCLC, in the assay with SK-MEL-28 melanoma, in the assay with KM12 colon, in the assay on IGROV1 ovarian and in the assay on SN12C renal was greater than 100 µM in each case. The TGI in the assay with SF-539 CNS, in the assay with MALME-3M melanoma, with MCF7 breast, in the assay with BT-549 breast, with NCI-H226 lung and in the assay with MDA-MB-435 was greater than 100 µM each time. The TGI with MDA-MB-231 breast is greater than 100 µM.

Take `CCOC(=O)c1c(N2CCOCC2)[nH]c(=O)c(C(c2ccc(Cl)c([N+](=O)[O-])c2)c2c(O)c(C(=O)OCC)c(N3CCOCC3)[nH]c2=O)c1O`: the TGI is greater than 100 µM in the assay with NCI-H460 lung; greater than 100 µM in the assay on A498 renal; 37 µM in the assay with OVCAR-8 ovarian; 55.8 µM in the assay with DU-145 prostate; 40.4 µM in the assay on CCRF-CEM leukemia; greater than 100 µM with OVCAR-5 ovarian. The TGI in the assay on 786-0 renal was greater than 100 µM; in the assay on A549 NSCLC, greater than 100 µM; in the assay on SK-MEL-28 melanoma, greater than 100 µM; with KM12 colon, greater than 100 µM; with SN12C renal, 51 µM; in the assay on SF-539 CNS, 59.7 µM. Further, the TGI in the assay with MALME-3M melanoma is greater than 100 µM; in the assay with MCF7 breast it was 69.6 µM; with BT-549 breast, 75.1 µM; in the assay with NCI-H226 lung, greater than 100 µM; in the assay with MDA-MB-435, greater than 100 µM; with MDA-MB-231 breast it was 41.9 µM.

Take `Nc1cnc2c(c1)c(=O)nc1n2CCS1`: the TGI in the assay with NCI-H460 lung, in the assay on A498 renal, in the assay on OVCAR-8 ovarian, in the assay with HL-60(TB) leukemia, with DU-145 prostate and in the assay with CCRF-CEM leukemia was greater than 100 µM in each case. Besides, the TGI in the assay on OVCAR-5 ovarian, in the assay with 786-0 renal, in the assay with A549 NSCLC, with SK-MEL-28 melanoma, in the assay on KM12 colon and with SN12C renal was greater than 100 µM in each case. Also, the TGI with SF-539 CNS, in the assay on MALME-3M melanoma, in the assay on MCF7 breast, with BT-549 breast, in the assay with NCI-H226 lung and with MDA-MB-435 was greater than 100 µM throughout. Further, in the assay on MDA-MB-231 breast, the total growth inhibition concentration (TGI) is greater than 100 µM.

`NC(=O)C(=CN1CC(=O)NC1=S)C(N)=O`: the TGI with NCI-H460 lung, in the assay on A498 renal, in the assay with OVCAR-8 ovarian, in the assay with HL-60(TB) leukemia, with DU-145 prostate and in the assay on OVCAR-5 ovarian was greater than 100 µM throughout. The TGI with 786-0 renal, in the assay with A549 NSCLC, with SK-MEL-28 melanoma, in the assay with KM12 colon, in the assay with IGROV1 ovarian and with SN12C renal was greater than 100 µM throughout. The TGI with SF-539 CNS, in the assay with MCF7 breast, in the assay on BT-549 breast, with NCI-H226 lung, in the assay on MDA-MB-435 and with MDA-MB-231 breast was greater than 100 µM each time.
